Species: Rattus norvegicus
Assay: Open TG-GATES - Regimen: Daily Repeat
Assay type: toxicity, organism-based, Sprague-Dawley
Design: regimen Daily Repeat, gender Male, age 6 weeks
Conditions: in vivo, po, route gavage; for APTT / Bas / Eos / Fbg / Hb / Ht / Lym / MCH / MCHC / MCV / Mono / Neu / PT / Plat / RBC / Ret / WBC: tissue Blood; for KIDNEY_L / KIDNEY_R / KIDNEY_TOTAL: tissue Kidney; for LIVER: tissue Liver; for A/G / ALP / ALT / AST / BUN / CRE / Ca / Cl / DBIL / GLC / IP / K / LDH / Na / PL / RALB / TBIL / TC / TG / TP / gamma-GTP: tissue Plasma
[1] = 300 mg/kg, 72 h, dose level Middle, time 3 day
[2] = 300 mg/kg, […], dose level Middle, time 7 day
[3] = 300 mg/kg, […], dose level Middle, time 14 day
[4] = 300 mg/kg, […], dose level Middle, time 28 day
[5] = 1000 mg/kg, 72 h, dose level High, time 3 day
[6] = 1000 mg/kg, […], dose level High, time 7 day
[7] = 1000 mg/kg, […], dose level High, time 14 day
[8] = 1000 mg/kg, […], dose level High, time 28 day

## Cc1nnc2n1-c1ccc(Cl)cc1C(c1ccccc1Cl)=NC2 [TRIAZOLAM]
[1]
  TERMINAL_BW: 220.9 g
  APTT: 25.7 s
  Bas: 0.2%
  Eos: 1%
  Fbg: 302 mg/dL
  Hb: 13.8 g/dL
  Ht: 41.2%
  Lym: 78.6%
  MCH: 21.6 pg
  MCHC: 33.4%
  MCV: 64.4 fL
  Mono: 3.2%
  Neu: 16.2%
  PT: 12.8 s
  Plat: 108.5 x10_4/uL
  RBC: 639.2 x10_4/ul
  Ret: 6.8%
  WBC: 124.2 x10_2/uL
  KIDNEY_L: 1 g
  KIDNEY_R: 1 g
  KIDNEY_TOTAL: 1.9 g
  LIVER: 10.9 g
  A/G: 0.9
  ALP: 1522.4 IU/L
  ALT: 53.4 IU/L
  AST: 74.4 IU/L
  BUN: 14.6 mg/dL
  CRE: 0.2 mg/dL
  Ca: 11.1 mg/dL
  Cl: 104.2 meq/L
  DBIL: 0.014 mg/dL
  GLC: 176.8 mg/dL
  IP: 8.2 mg/dL
  K: 3.9 meq/L
  LDH: 104.8 IU/L
  Na: 141.6 meq/L
  PL: 155 mg/dL
  RALB: 2.6 g/dL
  TBIL: 0.048 mg/dL
  TC: 81 mg/dL
  TG: 82 mg/dL
  TP: 5.6 g/dL
  gamma-GTP: 1 IU/L
[2]
  TERMINAL_BW: 262.7 g
  APTT: 19.2 s
  Bas: 0%
  Eos: 1%
  Fbg: 262.6 mg/dL
  Hb: 13.6 g/dL
  Ht: 40.5%
  Lym: 76.6%
  MCH: 21.4 pg
  MCHC: 33.6%
  MCV: 63.6 fL
  Mono: 3.4%
  Neu: 18.6%
  PT: 12.8 s
  Plat: 124.7 x10_4/uL
  RBC: 637.8 x10_4/ul
  Ret: 7%
  WBC: 119.6 x10_2/uL
  KIDNEY_L: 1.1 g
  KIDNEY_R: 1.1 g
  KIDNEY_TOTAL: 2.2 g
  LIVER: 12.6 g
  A/G: 0.9
  ALP: 1686 IU/L
  ALT: 53 IU/L
  AST: 75 IU/L
  BUN: 19 mg/dL
  CRE: 0.2 mg/dL
  Ca: 11.1 mg/dL
  Cl: 104.8 meq/L
  DBIL: 0.012 mg/dL
  GLC: 187.2 mg/dL
  IP: 7.5 mg/dL
  K: 4.2 meq/L
  LDH: 84.8 IU/L
  Na: 141.4 meq/L
  PL: 162.8 mg/dL
  RALB: 2.6 g/dL
  TBIL: 0.038 mg/dL
  TC: 79 mg/dL
  TG: 103.4 mg/dL
  TP: 5.7 g/dL
  gamma-GTP: 1 IU/L
[3]
  TERMINAL_BW: 306.6 g
  APTT: 17.8 s
  Bas: 0.4%
  Eos: 1%
  Fbg: 245.8 mg/dL
  Hb: 14.1 g/dL
  Ht: 43.1%
  Lym: 76%
  MCH: 19.9 pg
  MCHC: 32.8%
  MCV: 60.8 fL
  Mono: 2.2%
  Neu: 19.4%
  PT: 13.5 s
  Plat: 113 x10_4/uL
  RBC: 710 x10_4/ul
  Ret: 4.9%
  WBC: 121.8 x10_2/uL
  KIDNEY_L: 1.2 g
  KIDNEY_R: 1.2 g
  KIDNEY_TOTAL: 2.4 g
  LIVER: 13.4 g
  A/G: 0.8
  ALP: 1485.8 IU/L
  ALT: 43 IU/L
  AST: 73 IU/L
  BUN: 15 mg/dL
  CRE: 0.2 mg/dL
  Ca: 10.8 mg/dL
  Cl: 104.6 meq/L
  DBIL: 0.008 mg/dL
  GLC: 182.2 mg/dL
  IP: 7.2 mg/dL
  K: 4.1 meq/L
  LDH: 87.4 IU/L
  Na: 142.8 meq/L
  PL: 140 mg/dL
  RALB: 2.6 g/dL
  TBIL: 0.036 mg/dL
  TC: 67.2 mg/dL
  TG: 105.4 mg/dL
  TP: 5.7 g/dL
  gamma-GTP: 1.2 IU/L
[4]
  TERMINAL_BW: 407.3 g
  APTT: 18.4 s
  Bas: 0%
  Eos: 1.2%
  Fbg: 262.4 mg/dL
  Hb: 15.3 g/dL
  Ht: 45.6%
  Lym: 82%
  MCH: 19.3 pg
  MCHC: 33.6%
  MCV: 57.5 fL
  Mono: 1.4%
  Neu: 14.2%
  PT: 13.6 s
  Plat: 106.2 x10_4/uL
  RBC: 793.4 x10_4/ul
  Ret: 2.3%
  WBC: 88.2 x10_2/uL
  KIDNEY_L: 1.4 g
  KIDNEY_R: 1.4 g
  KIDNEY_TOTAL: 2.8 g
  LIVER: 15.8 g
  A/G: 0.8
  ALP: 1211.8 IU/L
  ALT: 36.4 IU/L
  AST: 67.8 IU/L
  BUN: 16.8 mg/dL
  CRE: 0.3 mg/dL
  Ca: 10.7 mg/dL
  Cl: 105 meq/L
  DBIL: 0.012 mg/dL
  GLC: 186.4 mg/dL
  IP: 6.2 mg/dL
  K: 4.1 meq/L
  LDH: 82.2 IU/L
  Na: 142 meq/L
  PL: 145.8 mg/dL
  RALB: 2.7 g/dL
  TBIL: 0.058 mg/dL
  TC: 70.6 mg/dL
  TG: 110.8 mg/dL
  TP: 6.2 g/dL
  gamma-GTP: 1 IU/L
[5]
  TERMINAL_BW: 221.7 g
  APTT: 18.3 s
  Bas: 0.2%
  Eos: 1%
  Fbg: 278.6 mg/dL
  Hb: 13.8 g/dL
  Ht: 41.1%
  Lym: 78.2%
  MCH: 21.3 pg
  MCHC: 33.6%
  MCV: 63.4 fL
  Mono: 3.6%
  Neu: 16%
  PT: 13 s
  Plat: 124.4 x10_4/uL
  RBC: 650.2 x10_4/ul
  Ret: 6.4%
  WBC: 105.8 x10_2/uL
  KIDNEY_L: 1 g
  KIDNEY_R: 1 g
  KIDNEY_TOTAL: 1.9 g
  LIVER: 10.9 g
  A/G: 0.9
  ALP: 1527.4 IU/L
  ALT: 56 IU/L
  AST: 67.4 IU/L
  BUN: 14.4 mg/dL
  CRE: 0.2 mg/dL
  Ca: 11.5 mg/dL
  Cl: 102.8 meq/L
  DBIL: 0.016 mg/dL
  GLC: 167 mg/dL
  IP: 9.1 mg/dL
  K: 4.2 meq/L
  LDH: 98.4 IU/L
  Na: 141.6 meq/L
  PL: 157 mg/dL
  RALB: 2.6 g/dL
  TBIL: 0.048 mg/dL
  TC: 81.2 mg/dL
  TG: 84.2 mg/dL
  TP: 5.6 g/dL
  gamma-GTP: 1 IU/L
[6]
  TERMINAL_BW: 254.6 g
  APTT: 17.8 s
  Bas: 0%
  Eos: 1%
  Fbg: 282.6 mg/dL
  Hb: 13.7 g/dL
  Ht: 40.7%
  Lym: 74%
  MCH: 20.9 pg
  MCHC: 33.6%
  MCV: 62.1 fL
  Mono: 2.6%
  Neu: 21.6%
  PT: 12.8 s
  Plat: 129.1 x10_4/uL
  RBC: 656.2 x10_4/ul
  Ret: 5.5%
  WBC: 113.3 x10_2/uL
  KIDNEY_L: 1.1 g
  KIDNEY_R: 1.1 g
  KIDNEY_TOTAL: 2.3 g
  LIVER: 12.4 g
  A/G: 0.9
  ALP: 1848.4 IU/L
  ALT: 47.2 IU/L
  AST: 67.2 IU/L
  BUN: 15.8 mg/dL
  CRE: 0.2 mg/dL
  Ca: 11.2 mg/dL
  Cl: 105 meq/L
  DBIL: 0.014 mg/dL
  GLC: 176.6 mg/dL
  IP: 7.4 mg/dL
  K: 4.7 meq/L
  LDH: 86.2 IU/L
  Na: 142 meq/L
  PL: 160.8 mg/dL
  RALB: 2.7 g/dL
  TBIL: 0.032 mg/dL
  TC: 78.6 mg/dL
  TG: 108.2 mg/dL
  TP: 5.7 g/dL
  gamma-GTP: 1 IU/L
[7]
  TERMINAL_BW: 312.6 g
  APTT: 18.3 s
  Bas: 0.4%
  Eos: 1%
  Fbg: 249.6 mg/dL
  Hb: 14.2 g/dL
  Ht: 43.5%
  Lym: 78.6%
  MCH: 20 pg
  MCHC: 32.6%
  MCV: 61.2 fL
  Mono: 2.6%
  Neu: 16.8%
  PT: 13.3 s
  Plat: 123.4 x10_4/uL
  RBC: 711.4 x10_4/ul
  Ret: 5.3%
  WBC: 135.4 x10_2/uL
  KIDNEY_L: 1.3 g
  KIDNEY_R: 1.3 g
  KIDNEY_TOTAL: 2.5 g
  LIVER: 14.2 g
  A/G: 0.9
  ALP: 1576.6 IU/L
  ALT: 48 IU/L
  AST: 71.6 IU/L
  BUN: 17.8 mg/dL
  CRE: 0.2 mg/dL
  Ca: 10.8 mg/dL
  Cl: 103.6 meq/L
  DBIL: 0.01 mg/dL
  GLC: 188.4 mg/dL
  IP: 7.7 mg/dL
  K: 4.1 meq/L
  LDH: 112.2 IU/L
  Na: 141.8 meq/L
  PL: 157.6 mg/dL
  RALB: 2.6 g/dL
  TBIL: 0.036 mg/dL
  TC: 74.8 mg/dL
  TG: 127.4 mg/dL
  TP: 5.7 g/dL
  gamma-GTP: 1 IU/L
[8]
  TERMINAL_BW: 383.1 g
  APTT: 18.3 s
  Bas: 0.2%
  Eos: 1.4%
  Fbg: 273 mg/dL
  Hb: 15.3 g/dL
  Ht: 45.2%
  Lym: 76.2%
  MCH: 19.7 pg
  MCHC: 33.9%
  MCV: 58.2 fL
  Mono: 2.2%
  Neu: 18.4%
  PT: 13.2 s
  Plat: 112.9 x10_4/uL
  RBC: 776.4 x10_4/ul
  Ret: 2.4%
  WBC: 103.3 x10_2/uL
  KIDNEY_L: 1.4 g
  KIDNEY_R: 1.4 g
  KIDNEY_TOTAL: 2.8 g
  LIVER: 15.2 g
  A/G: 0.8
  ALP: 950 IU/L
  ALT: 41.2 IU/L
  AST: 68.8 IU/L
  BUN: 15.4 mg/dL
  CRE: 0.2 mg/dL
  Ca: 10.5 mg/dL
  Cl: 105.2 meq/L
  DBIL: 0.002 mg/dL
  GLC: 181 mg/dL
  IP: 6 mg/dL
  K: 4 meq/L
  LDH: 75 IU/L
  Na: 142.2 meq/L
  PL: 159.8 mg/dL
  RALB: 2.8 g/dL
  TBIL: 0.046 mg/dL
  TC: 79.8 mg/dL
  TG: 92 mg/dL
  TP: 6.1 g/dL
  gamma-GTP: 1.2 IU/L
